Measurements as given in patent US20180127374A1, “BE[…] AS OPIOID RECEPTORS MODULATORS” (Purdue Pharma L.P., priority 2012, published 2018).
Where two headings read alike, the source gives them in different places.

Assays:
[1] = biological target: T1, human opioid receptor-like receptor (ORL-1) (Homo sapiens, UniProt P41146); test: ORL-1 receptor radioligand binding assay
T1 construct: host or cells: HEK-293
Method: Membranes from recombinant HEK-293 cells expressing the human opioid receptor-like receptor (ORL-1) (Perkin Elmer, Shelton, Conn.) were prepared by lysing cells in ice-cold hypotonic buffer (2.5 mM MgCl2, 50 mM HEPES, pH 7.4) (10 ml/10 cm dish) followed by homogenization with a tissue grinder/Teflon pestle. Membranes were collected by centrifugation at 30,000×g for 15 min at 4° C. and pellets resuspended in hypotonic buffer to a final concentration of 1-3 mg/ml. Protein concentrations were determined using the BioRad protein assay reagent with bovine serum albumen as standard. Aliquots of the ORL-1 receptor membranes were stored at −80° C.
The data from screening and dose-displacement experiments were analyzed using Microsoft Excel and the curve fitting functions in GraphPad PRISM™, v. 3.0 or higher, respectively, or an in-house function for one-site competition curve-fitting.

μ-opioid receptor [2] = biological target: T2, μ-opioid receptor (Homo sapiens, UniProt P35372); test: μ-opioid receptor radioligand dose-displacement binding assay
Method: Radioligand dose-displacement binding assays for μ-opioid receptors used 0.3 nM [^3H]-diprenorphine (Perkin Elmer, Shelton, Conn.), with […] membrane protein/well in a final volume of […] binding buffer (10 mM MgCl2, 1 mM EDTA, 5% DMSO, 50 mM HEPES, pH 7.4). Reactions were carried out in the absence or presence of increasing concentrations of unlabeled naloxone. All reactions were conducted in 96-deep well polypropylene plates for 2 hr at room temperature. […] The data were analyzed using the one-site competition curve fitting functions in GraphPad PRISM™ v. 3.0 or higher (San Diego, Calif.), or an in-house function for one-site competition curve-fitting.
Target sequence in this assay (P35372 whole entry): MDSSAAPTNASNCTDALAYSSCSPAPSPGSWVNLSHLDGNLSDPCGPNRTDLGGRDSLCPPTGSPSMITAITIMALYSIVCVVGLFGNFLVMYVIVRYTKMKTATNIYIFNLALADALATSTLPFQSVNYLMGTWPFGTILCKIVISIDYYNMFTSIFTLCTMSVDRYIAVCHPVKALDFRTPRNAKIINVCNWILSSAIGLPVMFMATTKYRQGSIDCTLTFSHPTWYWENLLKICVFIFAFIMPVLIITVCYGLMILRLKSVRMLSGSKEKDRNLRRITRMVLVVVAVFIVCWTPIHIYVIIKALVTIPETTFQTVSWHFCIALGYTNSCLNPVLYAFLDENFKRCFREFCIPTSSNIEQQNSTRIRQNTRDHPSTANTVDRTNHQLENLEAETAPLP

κ opioid receptor [3] = biological target: T3, κ opioid receptor (Homo sapiens, UniProt P41145); test: κ-opioid receptor [35S]GTPγS functional assay; assay type: biochemical; design: expressed in transfected cells; settings: for Emax: relative to the effect elicited by U69,593
T3 sequence (P41145 whole entry): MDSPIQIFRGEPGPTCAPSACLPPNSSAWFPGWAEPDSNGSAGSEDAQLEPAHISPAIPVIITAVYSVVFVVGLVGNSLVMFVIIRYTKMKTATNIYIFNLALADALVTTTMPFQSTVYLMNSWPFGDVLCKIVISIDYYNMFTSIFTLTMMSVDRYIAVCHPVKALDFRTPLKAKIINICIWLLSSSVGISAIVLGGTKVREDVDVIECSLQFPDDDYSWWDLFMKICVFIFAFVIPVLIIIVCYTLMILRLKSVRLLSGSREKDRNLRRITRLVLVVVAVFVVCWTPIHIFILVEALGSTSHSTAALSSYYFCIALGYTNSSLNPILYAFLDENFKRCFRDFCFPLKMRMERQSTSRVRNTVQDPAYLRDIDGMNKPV
Method: Functional [^35S]GTPγS binding assays were conducted as follows. κ opioid receptor membrane solution was prepared by sequentially adding final concentrations of 0.026 μg/μl κ membrane protein (in-house), 10 μg/mL saponin, 3 μM GDP and 0.20 nM [^35S]GTPγS to binding buffer (100 mM NaCl, 10 mM MgCl2, 20 mM HEPES, pH 7.4) on ice. The prepared membrane solution (190 μl/well) was transferred to 96-shallow well polypropylene plates containing 10 μl of 20× concentrated stock solutions of agonist prepared in DMSO. Plates were incubated for 30 min at a temperature of about 25° C. with shaking.
κ GTP EC50 is the concentration of a compound providing 50% of the maximal response for the compound at a κ receptor.
κ GTP Emax (%) is the maximal effect elicited by a compound relative to the effect elicited by U69,593.

μ-opioid receptor [4] = biological target: T2, μ-opioid receptor; test: μ-opioid receptor [35S]GTPγS functional assay; assay type: biochemical; design: purchased Perkin Elmer, Shelton, Conn; settings: for Emax: relative to the effect elicited by DAMGO
Method: [^35S]GTPγS functional assays were conducted using freshly thawed μ-receptor membranes (Perkin Elmer, Shelton, Conn.). Assay reactions were prepared by sequentially adding the following reagents to binding buffer (100 mM NaCl, 10 mM MgCl2, 20 mM HEPES, pH 7.4) on ice (final concentrations indicated): membrane protein (0.026 mg/mL), saponin ([…]), GDP ([…]) and [^35S]GTPγS (0.20 nM; Perkin Elmer, Shelton, Conn.). The prepared membrane solution (190 μl/well) was transferred to 96-shallow well polypropylene plates containing 10 μI of 20× concentrated stock solutions of the agonist [D-Ala^e, N-methyl-Phe^4 Gly-ol^5]-enkephalin (DAMGO) prepared in dimethyl sulfoxide (DMSO). Plates were incubated for 30 min at about 25° C. with shaking. […] Data were analyzed using the sigmoidal dose-response curve fitting functions in GraphPad PRISM v. 3.0, or an in-house function for non-linear, sigmoidal dose-response curve-fitting.
μ GTP EC50 is the concentration of a compound providing 50% of the maximal response for the compound at a μ-opioid receptor.
μ GTP Emax (%) is the maximal effect elicited by a compound relative to the effect elicited by DAMGO, a standard μ agonist. Generally, the μ GTP Emax (%) value measures the efficacy of a compound to treat or prevent pain or other Conditions.
Target sequence in this assay (P35372 whole entry, species assumed): as the sequence (P35372 whole entry) above

κ opioid receptor [5] = biological target: T3, κ opioid receptor; test: κ-opioid receptor radioligand dose displacement binding assay; design: expressed in transfected cells; host or cells: HEK-293
Method: Membranes from recombinant HEK-293 cells expressing the human κ opioid receptor (κ) (cloned in house) were prepared by lysing cells in ice cold hypotonic buffer (2.5 mM MgCl2, 50 mM HEPES, pH 7.4) (10 mL/10 cm dish) followed by homogenization with a tissue grinder/Teflon pestle. Membranes were collected by centrifugation at 30,000×g for 15 min at 4° C. and pellets were resuspended in hypotonic buffer to a final concentration of 1-3 mg/mL. Protein concentrations were determined using the BioRad protein assay reagent with bovine serum albumen as standard. Aliquots of κ receptor membranes were stored at […]

δ opioid receptor = δ opioid receptor (Homo sapiens, UniProt P41143); test: δ-opioid receptor radioligand dose-displacement binding assay
Sequence of δ opioid receptor (P41143 whole entry): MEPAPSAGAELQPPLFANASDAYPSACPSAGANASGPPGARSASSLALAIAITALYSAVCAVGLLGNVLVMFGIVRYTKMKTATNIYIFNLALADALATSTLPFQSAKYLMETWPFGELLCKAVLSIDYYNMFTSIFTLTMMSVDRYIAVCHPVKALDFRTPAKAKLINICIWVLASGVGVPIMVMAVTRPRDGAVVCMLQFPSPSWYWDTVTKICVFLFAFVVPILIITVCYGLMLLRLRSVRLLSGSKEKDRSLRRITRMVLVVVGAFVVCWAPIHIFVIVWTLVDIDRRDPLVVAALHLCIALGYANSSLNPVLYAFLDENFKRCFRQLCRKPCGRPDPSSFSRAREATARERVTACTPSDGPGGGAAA
Method: δ-opioid Receptor Binding Assay Procedures were conducted as follows. Radioligand dose-displacement assays used 0.3 nM [^3H]-Naltrindole (Perkin Elmer, Shelton, Conn.; 33.0 Ci/mmole) with 5 μg membrane protein (Perkin Elmer, Shelton, Conn.) in a final volume of 500 μl binding buffer (5 mM MgCl2, 5% DMSO, 50 mM Trizma base, pH 7.4). Non-specific binding was determined in the presence of 25 μM unlabeled naloxone. All reactions were performed in 96-deep well polypropylene plates for 1 hr at a temperature of about 25° C. Binding reactions were terminated by rapid filtration onto 96-well Unifilter GF/C filter plates (Perkin Elmer, Shelton, Conn.) presoaked in 0.5% polyethylenimine (Sigma). Harvesting was performed using a 96-well tissue harvester (Perkin Elmer, Shelton, Conn.) followed by five filtration washes with 500 μl ice-cold binding buffer. Filter plates were subsequently dried at 50° C. for 1-2 hours. Fifty μl/well scintillation cocktail (Perkin Elmer, Shelton, Conn.) was added and plates were counted in a Packard Top-Count for 1 min/well.

[6] = [3H]-nociceptin displacement, HEK-293 membranes, read-out: Ki (nM) ORL-1
[7] = [3H]-diprenorphine displacement, read-out: Ki (nM) Opioid Receptor μ
[8] = κ membrane protein (in-house), read-out: GTPγS κ EC50
[9] = μ-receptor membranes, read-out: GTPγS μ EC50
[10] = [3H]-U69,593 displacement, HEK-293 membranes, read-out: Ki (nM) Opioid Receptor κ

T1 sequence (P41146 whole entry): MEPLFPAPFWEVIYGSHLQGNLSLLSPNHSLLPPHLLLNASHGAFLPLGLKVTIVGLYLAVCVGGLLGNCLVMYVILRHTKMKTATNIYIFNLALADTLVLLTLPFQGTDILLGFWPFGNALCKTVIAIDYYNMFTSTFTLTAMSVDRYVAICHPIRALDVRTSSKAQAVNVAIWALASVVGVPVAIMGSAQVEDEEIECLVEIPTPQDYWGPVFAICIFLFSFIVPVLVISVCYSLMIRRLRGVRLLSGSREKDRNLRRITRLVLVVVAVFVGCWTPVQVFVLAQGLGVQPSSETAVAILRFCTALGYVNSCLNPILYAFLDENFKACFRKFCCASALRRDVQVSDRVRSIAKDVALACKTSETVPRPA

| Compound | Ki [1, 6] | Ki (μ-opioid receptor [2]; [7]) | Emax (κ opioid receptor [3]) | EC50 (κ opioid receptor [3]; [8]) | Emax (μ-opioid receptor [4]) | EC50 (μ-opioid receptor [4]; [9]) | Ki (κ opioid receptor [5]; [10]) | Ki (δ opioid receptor) | Ki [1] | Ki (μ-opioid receptor [2]) | EC50 (κ opioid receptor [3]) | EC50 (μ-opioid receptor [4]) | Ki (κ opioid receptor [5]) |
| --- | --- | --- | --- | --- | --- | --- | --- | --- | --- | --- | --- | --- | --- |
| COC(=O)CCC[C@]12CCN(CC3CC3)[C@H](Cc3ccc(O)cc31)[C@@H]2C [Compound 23, methyl 4-((2R,6R,11R)-3-(cyclopropylmethyl)-8-hydroxy-11-methyl-1,2,3,4,5,6-hexahydro-2,6-methanobenzo[d]azocin-6-yl)butanoate] | 2240 ± 285 nM | 1.16 ± 0.36 nM | 57% | 5.19 nM | 18% | 2.33 nM | 0.07 ± 0.01 nM | 32.6 ± 2.97 nM |  |  |  |  |  |
| COC(=O)[C@H](C)NC(=O)CCC[C@]12CCN(CC3CC3)[C@H](Cc3ccc(O)cc31)[C@@H]2C [Compound 21, (S)-methyl 2-(4-((2R,6R,11R)-3-(cyclopropylmethyl)-8-hydroxy-11-methyl-1,2,3,4,5,6-hexahydro-2,6-methanobenzo[d]azocin-6-yl)butanamido)propanoate] | 2430 ± 718 nM | 5.05 ± 1.34 nM | 67.5% | 9.72 nM | 36.7% | 5.45 nM | 0.13 ± 0.02 nM | 8.81 ± 0.71 nM |  |  |  |  |  |
| COc1ccc2c(c1)[C@@]1(CCC[C@H](O)CO)CCN(CC3CC3)C(C2)[C@@H]1C [Compound 11, (2S)-5-((6S,11R)-3-(cyclopropylmethyl)-8-methoxy-11-methyl-1,2,3,4,5,6-hexahydro-2,6-methanobenzo[d]azocin-6-yl)pentane-1,2-diol] |  |  | 81% |  |  |  |  | 4980 ± 456 nM | 13100 ± 1060 nM | 235 ± 17.3 nM | 210 nM | > 20000 nM | 3.23 ± 0.5 nM |
